Key:
HeLa cells [1] = experiment: Cell cycle analysis of DNA content by PI staining and FACS, HeLa; format: cell-based, human; conditions: for block of cells in mitosis: FACS analysis and immunofluorescence studies; for accumulation of cells in the G2/M stage: HeLa, 15 hours, FACS DNA content
Experimental: FIG. 7 illustrates the effect of S2 or S12 on cell cycle progression. HeLa cells were treated with S2, S12, S10, S1 (control compound), or DMSO (control), propidium iodide (PI) staining and FACS analysis were performed to quantify the DNA content of cells.
FIG. 9 illustrates the effect of S12 on mitosis. (A) HeLa cells were treated with S12, S2 or DMSO for 15 hours. The cells were then fixed and subjected to immunostaining using antibodies specific for Aurora B (green) and Survivin (red). DNA was stained with DAPI. Chromosome misalignment is indicated with the arrowheads. (B) Percentage of S12-treated cells in mitosis, in metaphase, in anaphase/telophase, or with misaligned chromosomes. (C) Percentage of S2-treated cells in mitosis, in metaphase, in anaphase/telophase, or with misaligned chromosomes. (D) HeLa cells were treated with S12 (10 μg/ml) or DMSO (control) for 15 hours. Cells were examined by PI staining of DNA content by FACS analysis.
FIG. 17 illustrates (A) FACS analysis of DNA content of HeLa cells treated with SBDO3. Note the accumulation of cells at the G2/M stage. Cell death was also observed (sub-G1 population); (B) Immuno-fluorescence microscopy analysis of cell treated with SBDO3. Note that the microtubule bundles of the mitotic spindle are disorganized. The chromosomes are not aligned properly and cells cannot go through metaphase.
The candidate Survivin-targeting molecules identified by the virtual screen were examined for the ability to inhibit cell proliferation and mitosis. HeLa cells were treated with the compounds at various concentrations for 15 hours followed by examination of the DNA content by FACS analysis. […] The effects of S2 inflicted on cell proliferation and viability are consistent with the anticipated outcome caused by the ablation of Survivin functions. We have extended these studies to test a number of molecules that are structurally similar to S2, including S10, S11, S12 and S13. […] S12 affected cell proliferation and viability, consistent with the anticipated outcome caused by ablation of Survivin functions.
We analyzed distribution of cells in the different stages of the cell cycle by FACS. […] In addition, the inhibitory effect of SBDO3 is dose dependent (FIG. 17A).
We also conducted immuno-fluorescence studies on SBDO3 treated HeLa cells.

[2] = tested on: AsPC1 pancreatic cancer cells; experiment: MTT tumor cell proliferation assay, AsPC1; format: cell-based, human; conditions: AsPC1, 5, 10, 20, or 50 μg/ml for 48 hours
Experimental: (§1) FIG. 3 illustrates the effect of S2 and its analogs on tumor cell proliferation. Cells were treated with DMSO or Survivin targeting molecules at the indicated concentration for 48 hours. The percentage of viable cells was evaluated by MTT assay. (A) AsPC1; (B) HeLa; (C) SKBR3; (D) DAOY.
(§2) FIG. 18 illustrates the effect of SBDO3, SN2, or SDC1 on tumor cell proliferation. (A) AsPC1 cells were treated with DMSO or the Survivin targeting molecules SBDO3 or SN2 at the indicated concentration for 48 hours. (B) SKBR3 cells were treated with DMSO or SDC1 for 48 hours. The percentage of viable cells was evaluated by MTT assay.
(§3) S2 and its analogs (S10, S11, S12, and S13) were tested for the ability to inhibit tumor cell proliferation by MTT assay. The AsPC1 pancreatic cancer cells were treated with DMSO, a control molecule SC2, or the Survivin-targeting compounds at the concentration of 5, 10, 20, or 50 μg/ml for 48 hours. The number of viable cells was evaluated by MTT.
(§4) SBDO3, SN2 and SDC1 were tested for the ability to inhibit tumor cell proliferation by MTT assay. The AsPC1 pancreatic cancer cells were treated with DMSO or the Survivin-targeting compounds at the concentration of 5, 10, 20, or 50 μg/ml for 48 hours. The number of viable cells was evaluated by MTT.

HeLa cells [3] = experiment: BrdU incorporation DNA synthesis assay (FACS), HeLa; format: cell-based, human; conditions: 4 hours treatment then one-hour BrdU
Experimental: BrdU-labeled cells were analyzed by FACS. The percentage of BrdU-positive cells is indicated.
HeLa cells were treated with S12, aphidicolin, or DMSO (control) for 4 hours. BrdU was then added to the medium followed by an additional incubation of 1 hour. The amount of BrdU was examined by staining with anti-BrdU antibody and FACS analysis. The percentage of BrdU-positive cells is shown.
To establish the specificity of the biological activities of the Survivin targeting we examined whether the compounds affect DNA synthesis. HeLa cells were treated with Aphidicolin, S2 or DMSO for 4 hours, followed by one-hour incubation with BrdU. The cells were then collected, fixed and stained with FITC-labeled anti-BrdU antibody.

Survivin protein = target: T1, Survivin protein (Homo sapiens, UniProt O15392); experiment: Isothermal titration calorimetry (ITC) binding to native Survivin; conditions: ITC, in words
T1 construct: made in house; host or cells: bacteria
Experimental: FIG. 5 illustrates an analysis of S12-Survivin binding with isothermal titration calorimetry (ITC). Single-site point mutagenesis was performed to create the Survivin mutants F86A and V89Y. The native and the mutant proteins were produced and purified from bacteria.
FIG. 16 illustrates the isothermal titration calorimetry profile of the binding of SBDO3 to the Survivin homodimer.
In order to examine the specificity of the binding, we generated point mutations on the Survivin protein at the site presumably targeted by S12. The two mutations were substitutions of phenylalanine 86 with alanine (F86A) and valine 89 with tyrosine (V89Y). These two altered sites are also adjacent to the interface involved in dimerization of the Survivin protein. Based on structural analyses, we predict that alterations of either of these two amino acid residues may abolish the binding of S12 without affecting the overall structure of the Survivin protein.
We tested the binding of the Survivin target molecules to Survivin by isothermal titration calorimetry.

SKBR3 breast cancer cell = experiment: MTT tumor cell proliferation assay, SKBR3; format: cell-based, human; conditions: SKBR3, 48 hours
Experimental: as §1, §2, §3, §4

T1 sequence (O15392 whole entry): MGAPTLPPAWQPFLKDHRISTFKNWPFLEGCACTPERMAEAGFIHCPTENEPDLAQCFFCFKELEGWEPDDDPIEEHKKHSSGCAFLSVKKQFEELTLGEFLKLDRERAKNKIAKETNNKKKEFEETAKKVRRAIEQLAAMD

## COc1ccc(C2C(C#N)=C(N)OC3=C2C(=O)CC(C)(C)C3)cc1OCc1ccccc1 (stereo not shown) [SN2]
HeLa cells [1]
  block of cells in mitosis: can also block cells in mitosis
[2]
  inhibition of cell proliferation / cell viability: can inhibit cell proliferation and reduce cell viability in a dose-dependent manner

## C[C@@]1(CO)[C@H](O)CC[C@@]2(C)[C@H]1CC[C@H]1C[C@@H]3C[C@@]12CC[C@]3(O)CO [aphidicolin, reference compound]
HeLa cells [3]
  DNA synthesis (BrdU incorporation): inhibits DNA replication

## O=C(CC1(O)C(=O)Nc2ccccc21)c1ccccc1 (stereo not shown) [S13]
HeLa cells [1]
  accumulation of cells in the G2/M stage: exhibit the ability to arrest the cells at the G2/M stage
[2]
  inhibition of cell proliferation / cell viability: can inhibit cell proliferation and reduce cell viability in a dose-dependent manner

## O=C(CC1(O)C(=O)Nc2ccc(Br)cc21)c1cccc([N+](=O)[O-])c1 (stereo not shown) [S11]
HeLa cells [1]
  accumulation of cells in the G2/M stage: exhibit the ability to arrest the cells at the G2/M stage
[2]
  inhibition of cell proliferation / cell viability: can inhibit cell proliferation and reduce cell viability in a dose-dependent manner

## O=C(CC1(O)C(=O)Nc2ccc(Br)cc21)c1ccc(F)cc1 (stereo not shown) [S10]
HeLa cells [1]
  accumulation of cells in the G2/M stage: exhibit the ability to arrest the cells at the G2/M stage
[2]
  inhibition of cell proliferation / cell viability: can inhibit cell proliferation and reduce cell viability in a dose-dependent manner

## O=C(O)c1ccccc1C(=O)c1ccc(Sc2ccccc2)c([N+](=O)[O-])c1 [SDC1]
Survivin protein
  binding to the Survivin protein: can bind to the Survivin protein
HeLa cells [1]
  block of cells in mitosis: can also block cells in mitosis
[2]
  inhibition of cell proliferation / cell viability: can inhibit cell proliferation and reduce cell viability in a dose-dependent manner
SKBR3 breast cancer cell
  inhibition of proliferation: can inhibit proliferation
